Measurements reported in US20260047583A1, “Bacillus Strain and Variants Thereof for Inhibition of Plant Diseases” (CHR. HANSEN A/S, priority 2022, published 2026).
Residues, ends and D or L forms follow the SMILES beside them.

Key:
F. culmorum = experiment: Inhibitory effect of pure lipopeptides and their combinations on growth in PDB, OD 600 nm; type: cell-based, Fusarium culmorum
Protocol: (§1) Increasing concentrations of pure stocks of surfactin (Sigma S3523, FIG. 3A), fengycin (Sigma SMB00292, FIG. 3B) or iturin (Sigma 11774, FIG. 3C) were added to 48-well microtiter plates containing PDB medium and a fixed fungal spore concentration. Inhibitory effect over two different phytopathogenic species was assayed, F. culmorum (FIG. 3, left) and P. irregulare (FIG. 3, right). Plates were incubated at 25° C. without shaking for 60 hours (in dark conditions) and fungal growth was measured by spectrophotometry at 600 nm. Experiments were carried out in biological duplicates with no major variations in inhibition potency of the tested strains.
(§2) Fungal growth inhibition of increasing concentrations of single compounds was compared with compound combinations, where a fixed concentration of one of them was assayed in combination with increasing concentrations of the second metabolite.

P. irregulare = experiment: as above; type: cell-based, Pythium irregulare
Protocol: as §1, §2

[1] = in the presence of surfactin, FIG. 4
[2] = even at high concentrations (200-400 μg/ml), FIG. 3A

fengycin
increase of bioactivity of fengycin in the presence of surfactin (F. culmorum; [1]): up to 6 fold | effective concentration of fengycin required to inhibit growth (P. irregulare; at surfactin concentrations of 100-200 μg/ml): 12.5 µg/mL | increase of bioactivity of fengycin in the presence of surfactin (P. irregulare; [1]): up to 6 fold

CC(C)CCCCCCCCC[C@@H]1CC(=O)N[C@@H](CCC(=O)O)C(=O)N[C@@H](CC(C)C)C(=O)N[C@H](CC(C)C)C(=O)N[C@@H](C(C)C)C(=O)N[C@@H](CC(=O)O)C(=O)N[C@H](CC(C)C)C(=O)N[C@@H](CC(C)C)C(=O)O1 [surfactin] (HELM PEPTIDE1{E.L.[dL].V.D.[dL].L}|CHEM1{[CC(C)CCCCCCCCC[C@H](CC(=O)[*:1])O[*:2]]}$PEPTIDE1,CHEM1,1:R1-1:R1|PEPTIDE1,CHEM1,7:R2-1:R2$$$V2.0)
inhibitory effect on growth (F. culmorum; [2]): very modest | inhibitory effect on growth (P. irregulare; [2]): very modest

iturin
effective concentration for growth inhibition (F. culmorum; 60 h, 25° C., FIG. 3C): 9 µg/mL | effective concentration for growth inhibition (P. irregulare; 60 h, 25° C., FIG. 3C): 9 µg/mL
